Reference: patent publication US12064402B2, “Binge behavior regulators” (Clearmind Medicine Inc., priority 2014, dated 2024)

Assays:
[1] = amount of alcoholic beverage drunk in a binge session after the drinking regulator; assay type: in vivo; conditions: 70 mg of drinking regulator; for amount of beer drunk in a binge session: reduced from 1.5 liter; for amount of wine drunk in a binge session: reduced from 1000 ml
Method: In exemplary embodiments, administration of the amount of 70 mg of drinking regulator selected form Compound 1 or Compound 2 described herein reduced the amount of beer drunk in a binge session from 1.5 liter to 0.5 liter, or the amount of wine drunk in a binge session from 1000 ml to 250 ml.

[2] = over six months, when used with counseling; cited from earlier work

COc1ccc2c(c1)CC(N)C2 (centres unmarked) [Compound 1, 5-methoxy-2-aminoindan]
amount of beer drunk in a binge session [1]: 0.5 L | amount of wine drunk in a binge session [1]: 250 mL

COc1cc2c(cc1OC)CC(N)C2 [Compound 2, 5,6-dimethoxy-2-aminoindan]
amount of beer drunk in a binge session [1]: 0.5 L | amount of wine drunk in a binge session [1]: 250 mL

C=C1CC[C@@]2(O)[C@H]3Cc4ccc(O)c5c4[C@@]2(CCN3CC2CC2)[C@H]1O5 [Nalmefene]
cut drinking [2]: 61%
